# Measurements reported in the supplement of paper PMC4862054.
# Columns and labels:
# Settings in all cases: incubation time: 72 h
# BT-474 [1] = experiment: normalised viability (% of control), CellTiter-Blue; higher = more viable cells (about 100 = DMSO control)
# How it was run: (§1)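 Vehicle (100) and a positive kill control (0) anchored the normalisation of each plate, and Z'-factor was used for quality control. Breast cancer cell lines in 20 µl suspension were incubated 72 h over compound in 5 µl medium in 384-well plates, followed by CellTiter-Blue at 560/590 nm. The value is normalised viability at a single listed concentration of the series.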
# BT-549 [2] = experiment: as above
# How it was run: as §1
# CAL-120 = experiment: as above
# How it was run: as §1
# CAL-51 [3] = experiment: as above
# How it was run: as §1
# HCC1143 [4] = experiment: as above
# How it was run: as §1
# HCC1599 [5] = experiment: as above
# How it was run: as §1
# HCC1937 = experiment: as above
# How it was run: as §1
# MDA-MB-231 [6] = experiment: as above
# How it was run: as §1
# MDA-MB-453 [7] = experiment: as above
# How it was run: as §1
# MDA-MB-468 [8] = experiment: as above
# How it was run: as §1
# MFM-223 = experiment: as above
# How it was run: as §1
# SK-BR-3 [9] = experiment: as above
# How it was run: as §1
# BT-474 [10] = experiment: drug sensitivity score (DSS), CellTiter-Blue viability (DSS (AUC-based score)); higher = stronger viability inhibition; extreme values may be limits of the assay
# Description: (§2)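 DSRT with the CellTiter-Blue (resazurin reduction) viability readout, fluorescence 560/590 nm, 72 h incubation. Plates were normalised to DMSO and benzethonium chloride controls. DSS is computed from the area under the fitted dose-response curve (5 or 9 concentrations).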
# BT-549 [11] = experiment: as above
# Description: as §2
# CAL-51 [12] = experiment: as above
# Description: as §2
# DU-4475 = experiment: as above
# Description: as §2
# HCC1143 [13] = experiment: as above
# Description: as §2
# HCC1599 [14] = experiment: as above
# Description: as §2
# HDQ-P1 = experiment: as above
# Description: as §2
# Hs578T = experiment: as above
# Description: as §2
# MDA-MB-231 [15] = experiment: as above
# Description: as §2
# MDA-MB-453 [16] = experiment: as above
# Description: as §2
# MDA-MB-468 [17] = experiment: as above
# Description: as §2
# SK-BR-3 [18] = experiment: as above
# Description: as §2
compound,measurement,setting,value
Nc1nc(Cl)nc2c1ncn2[C@@H]1O[C@H](CO)[C@@H](O)[C@@H]1F [Clofarabine],normalised viability,BT-474 [1]; 10 nM,106%
same,normalised viability,BT-474 [1]; 1000 nM,101%
same,normalised viability,BT-474 [1]; 10000 nM,102%
same,normalised viability,BT-549 [2]; 10 nM,87.5%
same,normalised viability,BT-549 [2]; 1000 nM,50.6%
same,normalised viability,BT-549 [2]; 10000 nM,42.3%
same,normalised viability,CAL-120; 10 nM,89.1%
same,normalised viability,CAL-120; 1000 nM,47.7%
same,normalised viability,CAL-120; 10000 nM,50.4%
same,normalised viability,CAL-51 [3]; 3 nM,109%
same,normalised viability,CAL-51 [3]; 30 nM,102%
same,normalised viability,CAL-51 [3]; 100 nM,108%
same,normalised viability,HCC1143 [4]; 10 nM,74.5%
same,normalised viability,HCC1143 [4]; 1000 nM,52.4%
same,normalised viability,HCC1143 [4]; 10000 nM,45%
same,normalised viability,HCC1599 [5]; 10 nM,106%
same,normalised viability,HCC1599 [5]; 1000 nM,87.5%
same,normalised viability,HCC1599 [5]; 10000 nM,71.6%
same,normalised viability,HCC1937; 10 nM,92.6%
same,normalised viability,HCC1937; 1000 nM,28.9%
same,normalised viability,HCC1937; 10000 nM,26.9%
same,normalised viability,MDA-MB-231 [6]; 10 nM,89.1%
same,normalised viability,MDA-MB-231 [6]; 1000 nM,64.4%
same,normalised viability,MDA-MB-231 [6]; 10000 nM,57.8%
same,normalised viability,MDA-MB-453 [7]; 3 nM,102%
same,normalised viability,MDA-MB-453 [7]; 30 nM,105%
same,normalised viability,MDA-MB-453 [7]; 100 nM,97.9%
same,normalised viability,MDA-MB-468 [8]; 10 nM,98.5%
same,normalised viability,MDA-MB-468 [8]; 1000 nM,39.5%
same,normalised viability,MDA-MB-468 [8]; 10000 nM,20.5%
same,normalised viability,MFM-223; 10 nM,92.6%
same,normalised viability,MFM-223; 1000 nM,85.3%
same,normalised viability,MFM-223; 10000 nM,86.2%
same,normalised viability,SK-BR-3 [9]; 10 nM,93%
same,normalised viability,SK-BR-3 [9]; 1000 nM,41.9%
same,normalised viability,SK-BR-3 [9]; 10000 nM,35.6%
same,drug sensitivity score,BT-474 [10],0
same,drug sensitivity score,BT-549 [11],10.6
same,drug sensitivity score,CAL-51 [12],11.1
same,drug sensitivity score,DU-4475,13.3
same,drug sensitivity score,HCC1143 [13],9.25
same,drug sensitivity score,HCC1599 [14],2.01
same,drug sensitivity score,HDQ-P1,0
same,drug sensitivity score,Hs578T,7.51
same,drug sensitivity score,MDA-MB-231 [15],12
same,drug sensitivity score,MDA-MB-453 [16],9.02
same,drug sensitivity score,MDA-MB-468 [17],12.5
same,drug sensitivity score,SK-BR-3 [18],15.3
CCN(CC)CCOc1ccc(C(=C(Cl)c2ccccc2)c2ccccc2)cc1 [Clomifene],normalised viability,BT-474 [1]; 10 nM,118%
same,normalised viability,BT-474 [1]; 1000 nM,111%
same,normalised viability,BT-474 [1]; 10000 nM,17.1%
same,normalised viability,BT-549 [2]; 10 nM,109%
same,normalised viability,BT-549 [2]; 1000 nM,96.6%
same,normalised viability,BT-549 [2]; 10000 nM,36%
same,normalised viability,CAL-120; 10 nM,93.4%
same,normalised viability,CAL-120; 1000 nM,95.3%
same,normalised viability,CAL-120; 10000 nM,18%
same,normalised viability,CAL-51 [3]; 3 nM,95.6%
same,normalised viability,CAL-51 [3]; 30 nM,90.3%
same,normalised viability,CAL-51 [3]; 100 nM,98.9%
same,normalised viability,HCC1143 [4]; 10 nM,86.2%
same,normalised viability,HCC1143 [4]; 1000 nM,84%
same,normalised viability,HCC1143 [4]; 10000 nM,85.2%
same,normalised viability,HCC1599 [5]; 10 nM,93.8%
same,normalised viability,HCC1599 [5]; 1000 nM,106%
same,normalised viability,HCC1599 [5]; 10000 nM,68.1%
same,normalised viability,HCC1937; 10 nM,115%
same,normalised viability,HCC1937; 1000 nM,117%
same,normalised viability,HCC1937; 10000 nM,55.6%
same,normalised viability,MDA-MB-231 [6]; 10 nM,98.8%
same,normalised viability,MDA-MB-231 [6]; 1000 nM,93.8%
same,normalised viability,MDA-MB-231 [6]; 10000 nM,14.1%
same,normalised viability,MDA-MB-453 [7]; 3 nM,116%
same,normalised viability,MDA-MB-453 [7]; 30 nM,114%
same,normalised viability,MDA-MB-453 [7]; 100 nM,104%
same,normalised viability,MDA-MB-468 [8]; 10 nM,98.2%
same,normalised viability,MDA-MB-468 [8]; 1000 nM,98.1%
same,normalised viability,MDA-MB-468 [8]; 10000 nM,6.16%
same,normalised viability,MFM-223; 10 nM,102%
same,normalised viability,MFM-223; 1000 nM,106%
same,normalised viability,MFM-223; 10000 nM,28.3%
same,normalised viability,SK-BR-3 [9]; 10 nM,105%
same,normalised viability,SK-BR-3 [9]; 1000 nM,105%
same,normalised viability,SK-BR-3 [9]; 10000 nM,67.2%
same,drug sensitivity score,BT-474 [10],2.94
same,drug sensitivity score,BT-549 [11],3.64
same,drug sensitivity score,CAL-51 [12],0
same,drug sensitivity score,DU-4475,1.29
same,drug sensitivity score,HCC1143 [13],0
same,drug sensitivity score,HCC1599 [14],0
same,drug sensitivity score,HDQ-P1,1.07
same,drug sensitivity score,Hs578T,0
same,drug sensitivity score,MDA-MB-231 [15],5.53
same,drug sensitivity score,MDA-MB-453 [16],3.38
same,drug sensitivity score,MDA-MB-468 [17],4.91
same,drug sensitivity score,SK-BR-3 [18],0
